Laboratory results: PMC12527034, “R103 and R115 Affinity Mutants of ATeam ATP Biosensors” (Sensors (Basel, Switzerland), 2025)

Legend:
[1] = test system: HEK293 cells; experiment: Live-cell imaging of metabolic inhibition (sensitized FRET emission ratio); assay type: cell-based
Experimental: Microscopy. HEK293 cells were cultured in low-glucose Dulbecco’s modified Eagle’s medium supplemented with 10% cosmic calf serum (Gibco, Thermo Fisher Scientific, Waltham, MA, USA). For imaging studies, cells were plated on 18 mm #1.5 coverslips and transfected with Effectene (Qiagen, Germantown, MD, USA) or by the calcium phosphate method. Prior to imaging, cells were equilibrated for at least 20 min at room temperature in imaging solution (15 mM HEPES, pH 7.3, 1.25 mM NaH2PO4, 130 mM NaCl, 3 mM KCl, 2 mM CaCl2, 1 mM MgCl2, 3 mM NaHCO3) supplemented with a glucose concentration dependent on the specific experiment. Live-cell microscopy was carried out at room temperature on an Olympus IX83 inverted fluorescence microscope with a 20X/0.75 NA air objective illuminated by a Lumencor SpectraX light engine and imaged with an Andor Zyla 4.2 sCMOS camera. An ECFP/EYFP/mCherry multiband beamsplitter (Chroma 69008bs) was used with bandpass excitation and emission filters for each channel: cyan 438/29 nm and 470/24 nm; yellow 510/10 nm and 540/30 nm; sensitized FRET 438/29 nm and 540/30 nm; red 575/25 nm and 631/28 nm. Andor iQ3 software was used for image acquisition, and ImageJ/FIJI was used for image analysis. […] Cell masks were created using a threshold of two times the background and applied to background-subtracted images. […]

[2] = target: T1, ATeam3.10 R103A/R115E (Bacillus sp. PS3, UniProt A0A0M5MQR7, R103A/R115E); experiment: Steady-state FRET ratio ADP dose response of 0.125 uM purified ATeam3.10 sensor at room temperature in 50 mM MOPS-KOH pH 7.3, 50 mM KCl, 0.5 mM MgCl2, 0.05% Triton-X100 (4 to 9 replicates).; assay type: binding; conditions: n = 4
T1 construct: gene uncC; epsilon subunit flanked by mseCFP and mVenus; polyhistidine-tagged
T1 sequence (A0A0M5MQR7 entry or part of it R103A/R115E): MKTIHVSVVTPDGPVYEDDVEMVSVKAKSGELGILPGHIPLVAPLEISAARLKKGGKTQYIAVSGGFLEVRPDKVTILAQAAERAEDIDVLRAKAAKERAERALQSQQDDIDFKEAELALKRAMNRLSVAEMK
Experimental: (§1) Protein Characterization. […] Samples were measured with n = 4 to 9 replicates.
(§2) Apparent dissociation constants are summarized in (E).

[3] = target: T2, ATeam3.10 R103A (Bacillus sp. PS3, UniProt A0A0M5MQR7, R103A); experiment: as above; assay type: binding; conditions: n = 4
T2 construct: gene uncC; epsilon subunit flanked by mseCFP and mVenus; polyhistidine-tagged
T2 sequence (A0A0M5MQR7 entry or part of it R103A): as the sequence (A0A0M5MQR7 entry or part of it R103A/R115E) above, with E115R counted along it
Experimental: as §1, §2

[4] = target: T3, ATeam3.10 R115E (Bacillus sp. PS3, UniProt A0A0M5MQR7, R115E); experiment: as above; assay type: binding; conditions: n = 4
T3 construct: gene uncC; epsilon subunit flanked by mseCFP and mVenus; polyhistidine-tagged
T3 sequence (A0A0M5MQR7 entry or part of it R115E): as the sequence (A0A0M5MQR7 entry or part of it R103A/R115E) above, with A103R counted along it
Experimental: as §1, §2

[5] = target: T4, ATeam3.10 R115A (Bacillus sp. PS3, UniProt A0A0M5MQR7, R115A); experiment: as above; assay type: binding; conditions: n = 4
T4 construct: gene uncC; epsilon subunit flanked by mseCFP and mVenus; polyhistidine-tagged
T4 sequence (A0A0M5MQR7 entry or part of it R115A): as the sequence (A0A0M5MQR7 entry or part of it R103A/R115E) above, with A103R, E115A counted along it
Experimental: as §1, §2

[6] = target: T5, ATeam3.10 R103E/R115A (Bacillus sp. PS3, UniProt A0A0M5MQR7, R103E/R115A); experiment: as above; assay type: binding; conditions: n = 4
T5 construct: gene uncC; epsilon subunit flanked by mseCFP and mVenus; polyhistidine-tagged
T5 sequence (A0A0M5MQR7 entry or part of it R103E/R115A): as the sequence (A0A0M5MQR7 entry or part of it R103A/R115E) above, with A103E, E115A counted along it
Experimental: as §1, §2

[7] = target: T6, ATeam3.10 R103E (Bacillus sp. PS3, UniProt A0A0M5MQR7, R103E); experiment: as above; assay type: binding; conditions: n = 4
T6 construct: gene uncC; epsilon subunit flanked by mseCFP and mVenus; polyhistidine-tagged
T6 sequence (A0A0M5MQR7 entry or part of it R103E): as the sequence (A0A0M5MQR7 entry or part of it R103A/R115E) above, with A103E, E115R counted along it
Experimental: as §1, §2

[8] = target: T7, ATeam3.10 (WT) (Bacillus sp. PS3, UniProt A0A0M5MQR7); experiment: as above; assay type: binding; conditions: n = 4; read-out: ADP Affinity Kapp
T7 construct: gene uncC; epsilon subunit flanked by mseCFP and mVenus; polyhistidine-tagged, expressed in E. coli BL21(DE3)
T7 sequence (A0A0M5MQR7 1-133): as the sequence (A0A0M5MQR7 entry or part of it R103A/R115E) above, with A103R, E115R counted along it
Experimental: as §1, §2

[9] = target: T8, ATeam3.10 R103A/R115A (Bacillus sp. PS3, UniProt A0A0M5MQR7, R103A/R115A); experiment: as above; assay type: binding; conditions: n = 4
T8 construct: gene uncC; epsilon subunit flanked by mseCFP and mVenus; polyhistidine-tagged
T8 sequence (A0A0M5MQR7 entry or part of it R103A/R115A): as the sequence (A0A0M5MQR7 entry or part of it R103A/R115E) above, with E115A counted along it
Experimental: as §1, §2

[10] = target: T9, ATeam3.10 R103E/R115E (Bacillus sp. PS3, UniProt A0A0M5MQR7, R103E/R115E); experiment: biochemical; design: gene uncC; conditions: n = 4
T9 sequence (A0A0M5MQR7 entry or part of it R103E/R115E): as the sequence (A0A0M5MQR7 entry or part of it R103A/R115E) above, with A103E counted along it
Experimental: Assays were carried out at room temperature with 0.125 µM protein in assay buffer (50 mM MOPS-KOH, pH 7.3, 50 mM KCl, 0.5 mM MgCl2, 0.05% Triton-X100). ATP stocks were neutralized to pH 7, and a total MgCl2 concentration was added to maintain 0.5 mM free Mg^2+ [21]. Samples were prepared in clear-bottom, black 96-well plates (Greiner Bio-One, Monroe, NC, USA). Sensor protein and ATP at a concentration dictated by each point on the dose–response curve were added to a single well with assay buffer and allowed to equilibrate. Samples were measured with n = 4 to 9 replicates. Steady-state fluorescence was measured on a BioTek Synergy H4 using 420/50 nm excitation and 485/20 nm or 528/20 nm emission bandpass filters (BioTek, Winooski, VT, USA). Donor fluorescence lifetimes were measured using an Edinburgh Instruments FS5+ time-resolved fluorometer with an NKT-Fianium WhiteLaseMicro supercontinuum pulsed laser (Edinburgh Instruments, Livingston, UK). Donor fluorescence lifetime distribution analysis was carried out using the MemExp software [22, 23, 24].
ADP dose responses were measured using purified protein in solution. FRET ratios were calculated as sensitized acceptor emission-to-donor emission ratios. […] ADP dose response curves for (C) single and (D) double mutants.

[11] = target: T9, ATeam3.10 R103E/R115E; experiment: Steady-state FRET ratio ATP dose response of 0.125 uM purified ATeam3.10 sensor at room temperature in 50 mM MOPS-KOH pH 7.3, 50 mM KCl, 0.5 mM free Mg2+, 0.05% Triton-X100 (4 to 9 replicates).; assay type: binding; design: gene uncC; epsilon subunit flanked by mseCFP and mVenus; polyhistidine-tagged; conditions: SD, n = 4; read-out: ATP Affinity Kapp
Experimental: as §1
(§3) We measured the ATP dose–response curves for all combinations of single and double mutants consisting of R-to-A charge neutralization or R-to-E charge reversal (Table 1, Figure 2). […] The difference between our observations likely reflects the sensitivity of the ε subunit to the label used. Kato-Yamada used a relatively small Cy3 label with a cysteine mutant (Q107C) of the ε subunit, whereas the ε subunit is fused to two large fluorescent proteins in ATeam3.10. Despite this difference, the increase in affinity could still be of particular use for developing an ATeam-based sensor to detect the low levels of extracellular ATP [2, 3, 11, 13, 25].
(§4) Figure 2 ATeam3.10 R103 and R115 single and double mutants tune ATP affinity. ATP dose responses were measured using purified protein in solution. […] Apparent dissociation constants are summarized in (E).

[12] = target: T1, ATeam3.10 R103A/R115E; experiment: as above; assay type: binding; conditions: SD, n = 4; read-out: ATP Affinity Kapp
Experimental: as §1, §3, §4

[13] = target: T2, ATeam3.10 R103A; experiment: as above; assay type: binding; conditions: SD, n = 4; read-out: ATP Affinity Kapp
Experimental: as §1, §3, §4

[14] = target: T3, ATeam3.10 R115E; experiment: as above; assay type: binding; conditions: SD, n = 4; read-out: ATP Affinity Kapp
Experimental: as §1, §3, §4

[15] = target: T4, ATeam3.10 R115A; experiment: as above; assay type: binding; conditions: SD, n = 4; read-out: ATP Affinity Kapp
Experimental: as §1, §3, §4

[16] = target: T5, ATeam3.10 R103E/R115A; experiment: as above; assay type: binding; conditions: SD, n = 4; read-out: ATP Affinity Kapp
Experimental: as §1, §3, §4

[17] = target: T6, ATeam3.10 R103E; experiment: as above; assay type: binding; conditions: SD, n = 4; read-out: ATP Affinity Kapp
Experimental: as §1, §3, §4

[18] = target: T7, ATeam3.10 (WT); experiment: as above; assay type: binding; conditions: SD, n = 4; read-out: ATP Affinity Kapp
Experimental: as §1, §3, §4

[19] = target: T8, ATeam3.10 R103A/R115A; experiment: as above; assay type: binding; conditions: SD, n = 4; read-out: ATP Affinity Kapp
Experimental: as §1, §3, §4

[20] = target: T10, ATeam1.03 (WT) (Bacillus subtilis, UniProt P37812); experiment: Steady-state FRET ratio ATP dose response of 0.125 uM purified ATeam1.03 or ATeam1.03YEMK sensor at room temperature in 50 mM MOPS-KOH pH 7.3, 50 mM KCl, 0.5 mM free Mg2+, 0.05% Triton-X100 (4 to 9 replicates).; assay type: binding; conditions: SD, n = 4; read-out: ATP Affinity Kapp (ATeam1.03 and ATeam1.03YEMK)
T10 construct: gene atpC; epsilon subunit flanked by mseCFP and mVenus; polyhistidine-tagged, expressed in E. coli BL21(DE3)
T10 sequence (P37812 whole entry): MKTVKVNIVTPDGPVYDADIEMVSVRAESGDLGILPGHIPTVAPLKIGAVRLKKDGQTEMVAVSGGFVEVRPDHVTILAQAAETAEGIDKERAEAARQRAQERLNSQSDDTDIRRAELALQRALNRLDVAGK
Experimental: as §1
(§5) Figure 4 All ATeam1.03 R103 and R115 single and double mutants cause loss of ATP affinity. ATP dose responses were measured using purified protein in solution. […] (A) Example fluorescence emission spectra for (A) wildtype ATeam1.03 and (B) the non-binding R103A/R115A double mutant.
(§6) Figure 5 ATeam1.03YEMK R103 and R115 single and double mutants tune ATP affinity. ATP dose responses were measured using purified protein in solution. […] (A) Example fluorescence emission spectra for (A) wildtype ATeam1.03YEMK, (B) the R103A/R115A double mutant, and (C) the R103A/R115E double mutant. ATP dose response curves for (D) single and (E) double mutants. Apparent dissociation constants are summarized in (F).

[21] = target: T11, ATeam1.03YEMK R103E/R115E; experiment: as above; assay type: binding; conditions: SD, n = 4; read-out: ATP Affinity Kapp (ATeam1.03 and ATeam1.03YEMK)
T11 construct: YEMK epsilon subunit flanked by mseCFP and mVenus; polyhistidine-tagged
Experimental: as §1, §5, §6

[22] = target: T12, ATeam1.03YEMK R103A/R115E; experiment: as above; assay type: binding; conditions: SD, n = 4; read-out: ATP Affinity Kapp (ATeam1.03 and ATeam1.03YEMK)
T12 construct: YEMK epsilon subunit flanked by mseCFP and mVenus; polyhistidine-tagged
Experimental: as §1, §5, §6

[23] = target: T13, ATeam1.03YEMK R115E (Bacillus subtilis, UniProt P37812, G131E/INS132K/K132M/M60Y/R115E); experiment: as above; assay type: binding; conditions: SD, n = 4; read-out: ATP Affinity Kapp (ATeam1.03 and ATeam1.03YEMK)
T13 construct: gene atpC; YEMK epsilon subunit flanked by mseCFP and mVenus; polyhistidine-tagged
T13 sequence (P37812 whole entry, stated change not applied): as the sequence (P37812 whole entry) above
Experimental: as §1, §5, §6

[24] = target: T14, ATeam1.03YEMK R103E/R115A; experiment: as above; assay type: binding; conditions: SD, n = 4; read-out: ATP Affinity Kapp (ATeam1.03 and ATeam1.03YEMK)
T14 construct: YEMK epsilon subunit flanked by mseCFP and mVenus; polyhistidine-tagged
Experimental: as §1, §5, §6

[25] = target: T15, ATeam1.03YEMK R115A (Bacillus subtilis, UniProt P37812, G131E/INS132K/K132M/M60Y/R115A); experiment: as above; assay type: binding; conditions: SD, n = 4; read-out: ATP Affinity Kapp (ATeam1.03 and ATeam1.03YEMK)
T15 construct: gene atpC; YEMK epsilon subunit flanked by mseCFP and mVenus; polyhistidine-tagged
T15 sequence (P37812 whole entry, stated change not applied): as the sequence (P37812 whole entry) above
Experimental: as §1, §5, §6

[26] = target: T16, ATeam1.03YEMK (WT) (Bacillus subtilis, UniProt P37812, G131E/INS132K/K132M/M60Y); experiment: as above; assay type: binding; conditions: SD, n = 4; read-out: ATP Affinity Kapp (ATeam1.03 and ATeam1.03YEMK)
T16 construct: gene atpC; epsilon subunit with four interface residues exchanged to match Bacillus sp; PS3, flanked by mseCFP and mVenus; polyhistidine-tagged
T16 sequence (P37812 whole entry, stated change not applied): as the sequence (P37812 whole entry) above
Experimental: as §1, §5, §6

## O=CC[C@@H](O)[C@H](O)[C@H](O)CO [DG, 2-deoxyglucose]
[1]; HEK293, 10 mM glucose
  effect on cytosolic ATP: did not cause a drastic loss of ATP
[1]; HEK293, absence of glucose
  effect on cytosolic ATP: did cause ATP depletion

## Nc1ncnc2c1ncn2[C@@H]1O[C@H](COP(=O)(O)OP(=O)(O)O)[C@@H](O)[C@H]1O [ADP, Adenosine diphosphate]
[2]
  Kd: 17 ± 1 µM
[3]
  Kd: 82 ± 6 µM
[4]
  Kd: 29 ± 2 µM
[5]
  Kd: 74 ± 7 µM
[6]
  Kd: 40 ± 2 µM
[7]
  Kd: 68 ± 3 µM
[8]
  Kd: 130 ± 10 µM
[9]
  Kd: 32 ± 5 µM
[10]
  Kd: 51 ± 6 µM

## Nc1ncnc2c1ncn2[C@@H]1O[C@H](COP(=O)(O)OP(=O)(O)OP(=O)(O)O)[C@@H](O)[C@H]1O [ATP, Adenosine triphosphate]
[11]
  Kd: 0.8 µM
[12]
  Kd: 0.2 µM
[13]
  Kd: 0.8 µM
[14]
  Kd: 0.3 µM
[15]
  Kd: 0.6 µM
[16]
  Kd: 0.7 µM
[17]
  Kd: 0.6 µM
[18]
  Kd: 0.8 µM
[19]
  Kd: 0.2 µM
[20]
  Kd: 1000 µM
[21]
  Kd: 2200 µM
[22]
  Kd: 1900 µM
[23]
  Kd: 700 µM
[24]
  Kd: 1900 µM
[25]
  Kd: 1800 µM
[26]
  Kd: 200 µM
